These results are taken from patent US12286429B2, “5-oxo-1,2,3,5,8,8a-hexahydroindolizine-3-carboxamide derivatives useful as a factor XIa inhibitors” (Janssen Pharmaceutica NV, priority 2021, dated 2025).

One test addresses Factor XIa (Homo sapiens, UniProt P03951). Briefly: Factor XIa inhibition assay utilizing a fluorophore-quencher pair peptide substrate (FLINT). Type of test: biochemical. Conditions: 11-point, 3-fold serial dilution, top 100 nM; 30 min preincubation; 15 μM 5Fam-KLTRAETV-K5Tamra substrate; kinetic reads over 30 min; read-out: FXIa Inhibition IC50. An excerpt: Biological Example 1: Factor XIa Inhibition Assay Utilizing a Fluorophore-Quencher Pair Peptide Substrate
A fluorescence intensity (FLINT) based assay was used to monitor inhibition of Factor XIa. The peptide substrate, 5Fam-KLTRAETV-K5Tamra (purchased from New England Peptide) was chosen based on the FXI sequence. Conversion of zymogen FXI to its activated form, FXIa, occurs by proteolytic cleavage by […] at two sites, Arg146 and Arg180. The custom peptide used in this assay was based on the Arg146 cleavage site of FXI. The peptide substrate was designed with a fluorophore-quencher pair, where the fluorescence is quenched until FXIa cleaves the 8-mer peptide after the Arg residue.
The Factor XIa FLINT assay was used with the following 5Fam-KLTRAETV-K5Tamra assay buffer: 50 mM Tris, pH 7.5, 100 mM NaCl, 5 mM CaCl2, 0.1 mg/mL BSA, 0.03% CHAPS. Assay buffer was prepared by mixing all ingredients fresh. 5Fam-KLTRAETV-K5Tamra peptide substrate was first prepared at 10 mM in 100% DMSO, then diluted to 3 mM in 100% DMSO. Assay buffer was then added directly to the 3 mM stock of substrate to prepare the 30 μM 2× working concentration (15 μM final concentration). The 2× Factor XIa stock solution was prepared by diluting 6.562 μM stock in 1× assay buffer for a […].
Test compound(s) were run in an 11-point, 3-fold serial dilution with a final top compound concentration of 100 nM. Final DMSO in assay was 2%. FXIa was preincubated with compound for 30-minutes and then substrate was added to initiate the reaction. The assay was run with kinetic (KIN) reads at 5 min intervals over 30 minutes. […] More specifically, the assay was run as follows: • 100 nL of 0.01 mM test compound was dispensed into black 384-well non-binding Greiner BioOne 784900 plate for 0.1 μM final concentration, • 5 μL of 1× assay buffer was dispensed to column 24 (low control) and 5 μL 2× Factor XIa solution was dispensed to columns 1-23 (column 23 high control); • the plate was centrifuged with a “cover” plate at 500 rpm for 1 min • the plate was pre-incubated for 30 minutes at room temperature with plate covered; • 5 μL of 2×5Fam-KLTRAETV-K5Tamra peptide substrate was dispensed into the entire plate, columns 1-24; • the plate was centrifuged with a “cover” plate at 500 rpm for 1 min; • the plate was read monitoring fluorescence intensity on the BMG PHERAStar at room temperature, using fluorescence module 485 nm/520 nm.
(§1) Percent inhibition (IC50) curves were generated per compound tested, and data was analyzed using a 4-parameter logistic fit using GeneData Screener. The relative fluorescence unit (RFU) values were normalized to percent inhibition using the following equation: % inhibition=((HC−LC)−(compound−LC)/(HC−LC))*100
where LC—low control=mean signal of no Factor XIa or 100% inhibition of Factor XIa; HC—high control=mean signal of Factor XIa+5Fam-KLTRAETV-K5Tamra peptide substrate with DMSO only.
(§2) An 11-point dose response curve for the test compound(s) was generated using GENDATA to determine IC50 value based on the following equation: Y=Bottom+(Top−Bottom)/(1+10^((log IC50−X)*HillSlope))
where Y is the % inhibition in the presence of X inhibitor concentration, Top=high control=mean signal of Factor XIa+5Fam-KLTRAETV-K5Tamra peptide substrate with DMSO only; Bottom=low control—mean signal of no Factor XIa or 100% inhibition of Factor XIa; HillSlope—Hill coefficient; and IC50=concentration of compound with 50% inhibition in relation to top/high control.

For a further test, the target named is human plasma kallikrein (Homo sapiens, UniProt P03952). Briefly: Kallikrein inhibition assay utilizing a quenched AMC peptide substrate (FLINT). It is filed as biochemical. Conditions: 11-point, 3-fold serial dilution, top 1 μM; 30 min preincubation; 2 nM kallikrein; 50 μM Z-Gly-Pro-Arg-AMC; kinetic reads over 30 min. The protocol: Biological Example 2: Kallikrein Inhibition Assay Utilizing a Quenched AMC Peptide Substrate
Sequence of human plasma kallikrein (P03952 391-638 limits assumed): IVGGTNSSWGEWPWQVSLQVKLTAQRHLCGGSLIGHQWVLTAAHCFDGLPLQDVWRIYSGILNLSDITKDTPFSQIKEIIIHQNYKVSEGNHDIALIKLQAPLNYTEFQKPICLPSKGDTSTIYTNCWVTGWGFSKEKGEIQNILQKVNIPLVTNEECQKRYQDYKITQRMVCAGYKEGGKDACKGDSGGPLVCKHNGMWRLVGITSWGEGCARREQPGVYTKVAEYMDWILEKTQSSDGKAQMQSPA
Sequence of human plasma kallikrein (P03952 20-390 partner limits assumed): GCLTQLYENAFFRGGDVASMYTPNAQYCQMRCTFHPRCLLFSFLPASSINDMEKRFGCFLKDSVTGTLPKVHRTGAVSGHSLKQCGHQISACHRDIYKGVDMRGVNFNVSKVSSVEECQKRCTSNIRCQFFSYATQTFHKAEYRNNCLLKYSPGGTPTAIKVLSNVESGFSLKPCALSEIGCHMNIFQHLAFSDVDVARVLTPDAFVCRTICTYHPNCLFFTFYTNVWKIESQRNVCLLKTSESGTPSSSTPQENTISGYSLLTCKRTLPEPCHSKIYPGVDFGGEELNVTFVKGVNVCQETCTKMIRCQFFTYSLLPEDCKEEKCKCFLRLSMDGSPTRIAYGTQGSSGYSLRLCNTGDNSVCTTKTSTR
A fluorescence intensity (FLINT) based assay was used to monitor inhibition of human plasma kallikrein. The peptide substrate, Z-Gly-Pro-Arg-AMC (Purchased from Bachem; Catalog #I-1150) was chosen based on its relatively low KM for kallikrein which enables running the assay at lower substrate concentrations to control background fluorescence. The kinetic parameters for this substrate were determined by fitting titration data to the Michaelis-Menten equation yielding a KM=40 μM, kcat=0.76 s^−1, and kcat/KM=18932 M^−1s^−1.
The Kallikrein FLINT assay was used with the following Z-Gly-Pro-Arg-AMC assay buffer: 50 mM Tris, pH 7.5, 100 mM NaCl, 5 mM CaCl2, 0.1 mg/mL BSA, 0.03% CHAPS. Assay buffer was prepared by mixing all ingredients fresh. 2× Z-Gly-Pro-Arg-AMC peptide substrate was prepared by diluting 10 mM stock into 1× assay buffer for a 100 μM working concentration (50 μM final concentration). The 2× kallikrein stock solution was prepared by diluting 14.76 μM stock in 1× assay buffer for a 4 nM working stock solution (2 nM final concentration).
Test compound(s) were run in an 11-point, 3-fold serial dilution with a final top compound concentration of 1 μM. Final DMSO in assay was 2%. Plasma kallikrein was pre-incubated for 30-minute with compound and then 50 μM substrate was added to initiate the reaction. The assay was run with kinetic (KIN) reads at 5 min intervals over 30 minutes. The time course was linear using 2 nM kallikrein greater than 30 minutes. More specifically, the assay was run as follows: • 100 nL of 0.1 mM test compound was dispensed into black 384-well non-binding Greiner BioOne 784900 plate for 1 μM final concentration; • 5 μL of 1× assay buffer was dispensed to columns 24 (low control) and 5 μL 2× human kallikrein enzyme solution was dispensed to columns 1-23 (column 23 high control); • the plate was centrifuged with a “cover” plate at 500 rpm for 1 min • the plate was pre-incubated for 30 minutes at room temperature with plate covered; • 5 μL of 2× Z-Gly-Pro-Arg-AMC peptide substrate was dispensed into the entire plate, columns 1-24; • the plate was centrifuged with a “cover” plate at 500 rpm for 1 min; • the plate was read monitoring fluorescence intensity on the BMG PHERAStar at room temperature, using fluorescence module 340 nm/440 nm.
as §1
where LC—low control=mean signal of […] 100% inhibition of human kallikrein enzyme; HC—high control=mean signal of […]+Z-Gly-Pro-Arg-AMC peptide substrate with DMSO only.
as §2
where Y is the % inhibition in the presence of X inhibitor concentration, Top=high control=mean signal of human kallikrein enzyme+Z-Gly-Pro-Arg-AMC peptide substrate with DMSO only; Bottom=low control—mean signal of no human kallikrein enzyme or 100% inhibition of human kallikrein enzyme; HillSlope—Hill coefficient; and IC50=concentration of compound with 50% inhibition in relation to top/high control.

Sequence of Factor XIa (P03951 388-625 limits assumed): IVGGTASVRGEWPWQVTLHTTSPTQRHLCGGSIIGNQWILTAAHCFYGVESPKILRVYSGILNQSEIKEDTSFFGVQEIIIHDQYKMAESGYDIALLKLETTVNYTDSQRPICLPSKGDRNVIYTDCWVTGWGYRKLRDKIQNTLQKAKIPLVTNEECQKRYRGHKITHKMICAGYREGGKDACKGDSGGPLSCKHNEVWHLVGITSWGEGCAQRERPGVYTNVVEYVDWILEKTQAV
Sequence of Factor XIa (P03951 19-387 partner limits assumed): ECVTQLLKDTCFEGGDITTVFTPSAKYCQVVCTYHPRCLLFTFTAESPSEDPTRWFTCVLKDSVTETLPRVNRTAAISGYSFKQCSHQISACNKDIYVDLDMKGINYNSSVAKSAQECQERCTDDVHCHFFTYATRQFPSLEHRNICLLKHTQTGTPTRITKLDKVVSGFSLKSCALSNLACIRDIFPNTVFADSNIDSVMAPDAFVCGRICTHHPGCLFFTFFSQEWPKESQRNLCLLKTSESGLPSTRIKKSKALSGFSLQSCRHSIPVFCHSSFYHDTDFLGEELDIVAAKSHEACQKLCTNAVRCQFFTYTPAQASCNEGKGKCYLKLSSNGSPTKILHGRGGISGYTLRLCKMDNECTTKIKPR

`CC(C)(O)c1nc2cc(NC(=O)[C@@H]3CCC4CC(c5c(-n6cnnn6)ccc(Cl)c5F)=CC(=O)N43)ccc2s1` (mixture of isomers) [compound 90]: the IC50 at Factor XIa is > 50 nM; on human plasma kallikrein, 109 nM.

As for `CC(O)c1nc2cc(NC(=O)[C@@H]3CCC4CC(c5c(-n6cnnn6)ccc(Cl)c5F)=CC(=O)N43)ccc2s1` (mixture of isomers) [compound 91], the IC50 on Factor XIa is > 50 nM; against human plasma kallikrein, 115 nM.

On to `CC(O)c1nc2cc(NC(=O)[C@@H]3CCC4CC(c5c(-n6cnnn6)ccc(Cl)c5F)=CC(=O)N43)ccc2s1` (mixture of isomers) [compound 92], for which the values for the IC50 at Factor XIa and against human plasma kallikrein were 33.5 nM and 50.4 nM, respectively.

Take `CCOCCOc1ccc2cc(NC(=O)[C@@H]3CCC4CC(c5c(-n6cc(C(F)(F)F)nn6)ccc(Cl)c5F)=CC(=O)N43)ccc2n1` (mixture of isomers) [compound 107]: the 50% inhibitory concentration (IC50) was > 50 nM on Factor XIa and 190 nM on human plasma kallikrein.

For `CO[C@H]1C[C@@H](C(=O)Nc2ccc3nn(C)cc3c2)N2C(=O)C=C(c3c(-n4cnnn4)ccc(Cl)c3F)CC12` (mixture of isomers) [compound 110], at Factor XIa, the IC50 was > 100 nM.

Regarding `COCCn1ncc2cc(NC(=O)[C@@H]3CCC4CC(c5c(-n6cnnn6)ccc(Cl)c5F)=CC(=O)N43)ccc21` (mixture of isomers) [ID No. 4, (3S)-7-(3-chloro-2-fluoro-6-(1H-tetrazol-1-yl)phenyl)-N-(1-(2-methoxyethyl)-1H-indazol-5-yl)-5-oxo-1,2,3,5,8,8a-hexahydroindolizine-3-carboxamide], the IC50 on Factor XIa was found to be 26.9 nM; against human plasma kallikrein, 106 nM.

Regarding `O=C(O)c1[nH]c2ccc(NC(=O)[C@@H]3CCC4CC(c5c(-n6cnnn6)ccc(Cl)c5F)=CC(=O)N43)cc2c1F` (mixture of isomers) [ID No. 26, 5-[[(3S)-7-[3-Chloro-2-fluoro-6-(tetrazol-1-yl)phenyl]-5-oxo-2,3,8,8a-tetrahydro-1H-indolizine-3-carbonyl]amino]-3-fluoro-1H-indole-2-carboxylic acid], the results for the IC50 on Factor XIa and against human plasma kallikrein were 3.2 nM and 60.4 nM, respectively.

Consider `CO[C@H]1C[C@@H](C(=O)Nc2ccc3n[nH]cc3c2)N2C(=O)C=C(c3c(-n4cnnn4)ccc(Cl)c3F)CC12` (mixture of isomers) [ID No. 27, (1S,3S)-7-[3-Chloro-2-fluoro-6-(tetrazol-1-yl)phenyl]-N-(2H-indazol-5-yl)-1-methoxy-5-oxo-2,3,8,8a-tetrahydro-1H-indolizine-3-carboxamide], for which the IC50 at Factor XIa is 136 nM.

`CO[C@H]1C[C@@H](C(=O)Nc2ccc3nccnc3c2)N2C(=O)C=C(c3c(-n4cnnn4)ccc(Cl)c3F)CC12` (mixture of isomers) [ID No. 28, (1S,3S)-7-[3-Chloro-2-fluoro-6-(tetrazol-1-yl)phenyl]-1-methoxy-5-oxo-N-quinoxalin-6-yl-2,3,8,8a-tetrahydro-1H-indolizine-3-carboxamide]: the IC50 at Factor XIa is ~189 nM; against human plasma kallikrein, 431 nM.

Take `O=C(Nc1ccc(-c2nc(=O)o[nH]2)cc1)[C@@H]1CCC2CC(c3c(OCC(F)(F)F)ccc(Cl)c3F)=CC(=O)N21` (mixture of isomers) [ID No. 40, (3S)-7-(3-Chloro-2-fluoro-6-(2,2,2-trifluoroethoxy)phenyl)-5-oxo-N-(4-(5-oxo-2,5-dihydro-1,2,4-oxadiazol-3-yl)phenyl)-1,2,3,5,8,8a-hexahydroindolizine-3-carboxamide]: the IC50 on Factor XIa is 30.8 nM.

For `Cn1oc(=O)nc1-c1ccc(NC(=O)[C@@H]2CCC3CC(c4c(-n5cnnn5)ccc(Cl)c4F)=CC(=O)N32)cc1` (mixture of isomers) [ID No. 67, (3S)-7-[3-Chloro-2-fluoro-6-(tetrazol-1-yl)phenyl]-N-[4-(2-methyl-5-oxo-1,2,4-oxadiazol-3-yl)phenyl]-5-oxo-2,3,8,8a-tetrahydro-1H-indolizine-3-carboxamide], the IC50 on Factor XIa is 183 nM.

For the compound `Cn1ccnc1-c1ccc(NC(=O)[C@@H]2CCC3CC(c4c(-n5cnnn5)ccc(Cl)c4F)=CC(=O)N32)cc1` (mixture of isomers) [ID No. 78, (3S)-7-[3-Chloro-2-fluoro-6-(tetrazol-1-yl)phenyl]-N-[4-(1-methylimidazol-2-yl)phenyl]-5-oxo-2,3,8,8a-tetrahydro-1H-indolizine-3-carboxamide], the IC50 at Factor XIa is 58.4 nM.

On to `C[C@@H]1C[C@@H](C(=O)Nc2ccc3nccnc3c2)N2C(=O)C=C(c3c(-n4cnnn4)ccc(Cl)c3F)C[C@H]12` (single isomer, unassigned) [ID No. 81, (1R*,3S,8aR*)-7-[3-Chloro-2-fluoro-6-(tetrazol-1-yl)phenyl]-1-methyl-5-oxo-N-quinoxalin-6-yl-2,3,8,8a-tetrahydro-1H-indolizine-3-carboxamide], for which the IC50 on Factor XIa was 639 nM.

On to `COCCNC(=O)c1ccc(NC(=O)[C@@H]2CCC3CC(c4c(-n5cnnn5)ccc(Cl)c4F)=CC(=O)N32)cc1F` (single isomer, unassigned) [ID No. 94, (3S,8aS*)-7-(3-chloro-2-fluoro-6-(1H-tetrazol-1-yl)phenyl)-N-(3-fluoro-4-((2-methoxyethyl)carbamoyl)phenyl)-5-oxo-1,2,3,5,8,8a-hexahydroindolizine-3-carboxamide], for which the IC50 at Factor XIa was > 50 nM.

Take `O=C(O)C1CCc2ccc(NC(=O)[C@@H]3CC[C@@H]4CC(c5c(-n6cc(C(F)(F)F)nn6)ccc(Cl)c5F)=CC(=O)N43)cc21` (stereo partly shown) [compound 104]: the concentration for half-maximal inhibition (IC50) at Factor XIa is > 50 nM.
